According to patent US20200368315A1, “ANTIMICROBIAL PEPTIDES AND ADMIXTURES THEREOF SHOWING ANTIMICROBIAL ACTIVITY AGAINST GRAM-NEGATIVE PATHOGENS” (priority 2017, published 2020):

System: A. baumannii LMG01041
Assay type: cell-based, Acinetobacter baumannii
Details: nisin + GNP
How it was run: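 Chequerboard broth microdilution in MHB: nisin and GNPs each two-fold serially diluted starting from their individual MICs, bacterial suspension added to 100 µL final volume. Synergy scored by FIC index (sum of combination MIC/single MIC for each agent): ≤0.5 synergistic, 0.5–1 additive, 1–2 indifferent, >2 antagonistic.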

Question: `CC[C@@H](C)[C@@H](NC(=O)[C@@H](CCCNC(=N)N)NC(=O)[C@@H](CCCNC(=N)N)NC(=O)[C@@H](Cc1ccccc1)NC(=O)[C@@H](CC(C)C)NC(=O)[C@@H](CCCNC(=N)N)NC(=O)[C@H](N)CCCNC(=N)N)C(=O)N[C@H](CC(C)C)C(=O)N[C@H](CCCNC(=N)N)C(=O)N[C@H](Cc1c[nH]c2ccccc12)C(=O)N[C@H](CC(C)C)C(N)=O` [GNP-D6] was tested. Which FICI did it give?
Answer: 0.313
